From PMC9485059 (iScience, 2022)

Key:
BAK [1] = biological target: T1, BAK (Homo sapiens, UniProt Q16611); assay: ligand-based 1D-NMR, […] 2D-NMR titration, competitive TR-FRET, nanoDSF; format: binding
T1 sequence (Q16611 15-186): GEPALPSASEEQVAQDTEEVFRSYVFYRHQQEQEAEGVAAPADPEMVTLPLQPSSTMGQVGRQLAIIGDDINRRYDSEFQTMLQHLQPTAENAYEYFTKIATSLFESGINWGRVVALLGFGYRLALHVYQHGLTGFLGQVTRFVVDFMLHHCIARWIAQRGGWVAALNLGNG

BAK [2] = biological target: T1, BAK; assay: ligand-based 1D-NMR; format: binding

IC50 (BAK [1])	IC50 (BAK [2])	Structure (SMILES)
1970 µM		Cc1ccc(C)c2sc(N)nc12 [A3]
	570 µM	Cc1ccc(Cl)c2sc(N)nc12 [H6, SJ572946]
